Patent publication US20170362292A1, “S-Alkylated Hepcidin Peptides and Methods of Making and Using Thereof” (priority 2014, published 2017)
Where two headings read alike, the source gives them in different places.

Legend:
human ferroportin-GFP = molecular target: T1, human ferroportin-GFP (Homo sapiens, UniProt Q9NP59); assay: cellular assay based on Fpn degradation (HEK293:TREX-Fpn-GFP cells, flow cytometry); format: cell-based
T1 sequence (Q9NP59 1-571): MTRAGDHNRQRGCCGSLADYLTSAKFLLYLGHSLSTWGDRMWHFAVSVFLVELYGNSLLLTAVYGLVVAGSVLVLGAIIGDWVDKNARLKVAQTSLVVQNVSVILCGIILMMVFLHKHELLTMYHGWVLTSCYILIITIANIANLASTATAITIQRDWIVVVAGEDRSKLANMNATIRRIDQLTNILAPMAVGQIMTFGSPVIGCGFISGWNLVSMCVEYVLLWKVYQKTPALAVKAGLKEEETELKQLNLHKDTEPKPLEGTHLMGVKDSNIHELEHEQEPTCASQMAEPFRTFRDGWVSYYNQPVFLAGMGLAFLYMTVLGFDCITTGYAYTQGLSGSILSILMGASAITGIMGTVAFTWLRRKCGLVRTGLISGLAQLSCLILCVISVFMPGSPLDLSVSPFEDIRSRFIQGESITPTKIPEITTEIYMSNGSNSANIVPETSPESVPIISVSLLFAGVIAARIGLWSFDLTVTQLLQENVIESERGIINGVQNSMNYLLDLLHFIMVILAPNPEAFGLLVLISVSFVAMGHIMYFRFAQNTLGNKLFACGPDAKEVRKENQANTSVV
Experimental: The S-alkylated hepcidin peptides were tested in vitro using a previously described cellular assay based on Fpn degradation. See e.g., Nemeth, et al. (2006) Blood 107: 328. Briefly, HEK293:TREX-Fpn-GFP, a cell line stably transfected with the human ferroportin-GFP construct under the control of doxycycline-inducible promoter, was plated on poly-D-lysine-coated plates in the presence of 20 μM FAC. Fpn expression was induced with 500 ng/mL doxycycline treatment for 24 hours. Then, doxycycline was washed off, and cells were treated with peptides for 24 hours. Cells were then trypsinized and resuspended at 1×10^6 cells/mL, and the intensity of green fluorescence was analyzed by flow cytometry using FAC Scan (fluorescence activated cell scanner) Analytic Flow Cytometer (Becton Dickinson, San Jose, Calif.) with CellQuest version 3.3 software. Cells not induced with doxycycline to express Fpn-GFP were used to establish a gate to exclude background fluorescence. Cells induced with doxycycline, but not treated with any peptides, were used as the positive control. Each peptide treatment was repeated independently 3 to 6 times. […] Hydrophobicity may also play a role, as activity increases in the carboxy-esters-substituent(s) order: —CH3<—C2H5<—C4H9 (PR73 SC<PR73 SB<PR73 SA).
In vitro activity may be measured by the dose-dependent loss of fluorescence of cells engineered to display ferroportin fused to green fluorescent protein as in Nemeth et al. (2006) Blood 107:328-33.

[1] = serum iron in C57BL/6 mice after intraperitoneal peptide injection; format: in vivo; conditions: 50-100 nmoles/mouse, vs PBS-injected mice
Experimental: Based on in vitro results, PR73SH was selected as a suitable candidate for animal studies, which were carried out as previously described. See Preza, et al. (2011) J. Clin. Invest. 121:4880; Ramos, et al. (2012) Blood 120:3829; and Nemeth, et al. (2006) Blood 107:328. Animal studies were approved by the Animal Research Committee at UCLA. Briefly, C57BL/6 mice were obtained from The Jackson Laboratory (Bar Harbor, Me.) and were maintained on NIH 31 rodent diet (iron content 336 mg/kg; Harlan Teklad, Indianapolis, […]). Mice were injected intraperitoneally either with 100 μL PBS (control) or with 50 or 100 nmoles peptide in 100 μL PBS. Mice were killed 6, 24, and 48 hours later, blood was collected by cardiac puncture, and serum was separated using Microtainer tubes (Becton Dickinson, Franklin Lakes, N.J.). Serum iron was determined by using a colorimetric assay (Diagnostic Chemicals, Oxford, Conn.), which was modified for the microplate format so that 50 μL serum was used per measurement. See Nemeth, et al. (2004) J. Clin. Invest. 113(9): 1271-1276. The results were expressed as the percentage of decrease in serum iron when compared with the average value of serum iron levels in PBS-injected mice.
In vivo activity of PR73SH and PR73 was compared by assaying serum iron levels at 3 time points: (6, 24, and 48 hours) and concentrations that were previously shown to be sufficient for PR73 to exert potent bioactivity (50-100 nmoles/mouse).

[2] = storage stability in DMSO (LC/MS/MS); format: physicochemical; conditions: 10 mM solution, room temperature, 30 days
Excerpt: Thus, the present invention also provides storage stable compositions comprising one or more S-alkylated hepcidin peptides.

[3] = peptide treatment 24 hours, loss of GFP fluorescence relative to Hep25, read-out: EC50 [nM] TREX-hFpn-GFP cells

With `CCCCCCCCCCCCCCCCNC(=O)CN(CC(N)=O)C(=O)CCCCCNC(=O)C[C@H](Cc1ccccc1)NC(=O)[C@H](CCCNC(=N)N)NC(=O)[C@H](CS)NC(=O)[C@H](CCCNC(=N)N)NC(=O)C[C@@H]1CCCN1C(=O)[C@@H](NC(=O)[C@H](Cc1c[nH]cn1)NC(=O)[C@@H](NC(=O)CNCC(=O)O)[C@@H](C)O)C(c1ccccc1)c1ccccc1` [PR73, reference compound] the EC50 (human ferroportin-GFP; [3]) was 4.2 ± 0.3 nM, the serum iron ([1]; 6 hour time point) was “decreased serum iron” and the serum iron ([1]; 24 hour time point) was “decreased serum iron”.
For `CCCCCCCCCCCCCCCCNC(=O)CN(CC(N)=O)C(=O)CCCCCNC(=O)C[C@H](Cc1ccccc1)NC(=O)[C@H](CCCNC(=N)N)NC(=O)[C@H](CSC(=CC(=O)OCC)C(=O)OCC)NC(=O)[C@H](CCCNC(=N)N)NC(=O)C[C@@H]1CCCN1C(=O)[C@@H](NC(=O)[C@H](Cc1c[nH]cn1)NC(=O)[C@@H](NC(=O)CNCC(=O)O)[C@@H](C)O)C(c1ccccc1)c1ccccc1` [PR73SB], the DC50 (human ferroportin-GFP; [3]) was 10.4 ± 1.2 nM.
In the case of `CCCCCCCCCCCCCCCCNC(=O)CN(CC(N)=O)C(=O)CCCCCNC(=O)C[C@H](Cc1ccccc1)NC(=O)[C@H](CCCNC(=N)N)NC(=O)[C@H](CSC(=CC(=O)OC)C(=O)OC)NC(=O)[C@H](CCCNC(=N)N)NC(=O)C[C@@H]1CCCN1C(=O)[C@@H](NC(=O)[C@H](Cc1c[nH]cn1)NC(=O)[C@@H](NC(=O)CNCC(=O)O)[C@@H](C)O)C(c1ccccc1)c1ccccc1` [PR73SC], the DC50 (human ferroportin-GFP; [3]) is reported as 12.6 ± 1.8 nM.
Work on `CCCCCCCCCCCCCCCCNC(=O)CN(CC(N)=O)C(=O)CCCCCNC(=O)C[C@H](Cc1ccccc1)NC(=O)[C@H](CCCNC(=N)N)NC(=O)[C@H](CSC=CC(=O)O)NC(=O)[C@H](CCCNC(=N)N)NC(=O)C[C@@H]1CCCN1C(=O)[C@@H](NC(=O)[C@H](Cc1c[nH]cn1)NC(=O)[C@@H](NC(=O)CNCC(=O)O)[C@@H](C)O)C(c1ccccc1)c1ccccc1` [PR73SD] yielded a DC50 (human ferroportin-GFP; [3]) of 218 ± 13.4 nM.
For `CCCCCCCCCCCCCCCCNC(=O)CN(CC(N)=O)C(=O)CCCCCNC(=O)C[C@H](Cc1ccccc1)NC(=O)[C@H](CCCNC(=N)N)NC(=O)[C@H](CSC(=CS(=O)(=O)C(C)(C)C)S(=O)(=O)C(C)(C)C)NC(=O)[C@H](CCCNC(=N)N)NC(=O)C[C@@H]1CCCN1C(=O)[C@@H](NC(=O)[C@H](Cc1c[nH]cn1)NC(=O)[C@@H](NC(=O)CNCC(=O)O)[C@@H](C)O)C(c1ccccc1)c1ccccc1` [PR73SF], the DC50 (human ferroportin-GFP; [3]) was 10 ± 3.4 nM.
In the case of `CCCCCCCCCCCCCCCCNC(=O)CN(CC(N)=O)C(=O)CCCCCNC(=O)C[C@H](Cc1ccccc1)NC(=O)[C@H](CCCNC(=N)N)NC(=O)[C@H](CSC(=CC(N)=O)C(N)=O)NC(=O)[C@H](CCCNC(=N)N)NC(=O)C[C@@H]1CCCN1C(=O)[C@@H](NC(=O)[C@H](Cc1c[nH]cn1)NC(=O)[C@@H](NC(=O)CNCC(=O)O)[C@@H](C)O)C(c1ccccc1)c1ccccc1` [PR73SG], the DC50 (human ferroportin-GFP; [3]) is reported as 8.4 ± 2.5 nM.
With `CCCCCCCCCCCCCCCCNC(=O)CN(CC(N)=O)C(=O)CCCCCNC(=O)C[C@H](Cc1ccccc1)NC(=O)[C@H](CCCNC(=N)N)NC(=O)[C@H](CSC(=CP(=O)(OCC)OCC)P(=O)(OCC)OCC)NC(=O)[C@H](CCCNC(=N)N)NC(=O)C[C@@H]1CCCN1C(=O)[C@@H](NC(=O)[C@H](Cc1c[nH]cn1)NC(=O)[C@@H](NC(=O)CNCC(=O)O)[C@@H](C)O)C(c1ccccc1)c1ccccc1` [PR73SH] the DC50 (human ferroportin-GFP; read-out: EC50 [nM] TREX-hFpn-GFP cells, peptide treatment 24 hours, loss of GFP fluorescence relative to Hep25) was 1.1 ± 0.1 nM, the stability [2] was 99.5±0.5% and the serum iron ([1]; 6 hour time point) was “decreased serum iron”. For the same compound, the serum iron ([1]; 24 hour time point) was “decreased serum iron”.
